Laboratory results published in patent US12162890B2 (Novartis AG, priority 2015, dated 2024).

Target: HEK293 cells with stable expression of the GRIN1 gene and tetracycline-inducible expression of the GRIN2B gene (NMDA receptor, NR2B) (Homo sapiens, UniProt Q13224)
Assay: Fluo-8 Ca2+ flux assay: reversal of Ro 25-6981-mediated suppression of the Ca2+ response to co-agonist (glutamate/glycine); also: test concentration or dose not given here
Assay type: cell-based
Conditions: reversal of the Ro 25-6981 suppression of the Ca2+ response to co-agonist (glutamate/glycine)

Chain of HEK293 cells with stable expression of the GRIN1 gene and tetracycline-inducible expression of the GRIN2B gene (NMDA receptor, NR2B) (Q13224 27-1484, other chains not shown): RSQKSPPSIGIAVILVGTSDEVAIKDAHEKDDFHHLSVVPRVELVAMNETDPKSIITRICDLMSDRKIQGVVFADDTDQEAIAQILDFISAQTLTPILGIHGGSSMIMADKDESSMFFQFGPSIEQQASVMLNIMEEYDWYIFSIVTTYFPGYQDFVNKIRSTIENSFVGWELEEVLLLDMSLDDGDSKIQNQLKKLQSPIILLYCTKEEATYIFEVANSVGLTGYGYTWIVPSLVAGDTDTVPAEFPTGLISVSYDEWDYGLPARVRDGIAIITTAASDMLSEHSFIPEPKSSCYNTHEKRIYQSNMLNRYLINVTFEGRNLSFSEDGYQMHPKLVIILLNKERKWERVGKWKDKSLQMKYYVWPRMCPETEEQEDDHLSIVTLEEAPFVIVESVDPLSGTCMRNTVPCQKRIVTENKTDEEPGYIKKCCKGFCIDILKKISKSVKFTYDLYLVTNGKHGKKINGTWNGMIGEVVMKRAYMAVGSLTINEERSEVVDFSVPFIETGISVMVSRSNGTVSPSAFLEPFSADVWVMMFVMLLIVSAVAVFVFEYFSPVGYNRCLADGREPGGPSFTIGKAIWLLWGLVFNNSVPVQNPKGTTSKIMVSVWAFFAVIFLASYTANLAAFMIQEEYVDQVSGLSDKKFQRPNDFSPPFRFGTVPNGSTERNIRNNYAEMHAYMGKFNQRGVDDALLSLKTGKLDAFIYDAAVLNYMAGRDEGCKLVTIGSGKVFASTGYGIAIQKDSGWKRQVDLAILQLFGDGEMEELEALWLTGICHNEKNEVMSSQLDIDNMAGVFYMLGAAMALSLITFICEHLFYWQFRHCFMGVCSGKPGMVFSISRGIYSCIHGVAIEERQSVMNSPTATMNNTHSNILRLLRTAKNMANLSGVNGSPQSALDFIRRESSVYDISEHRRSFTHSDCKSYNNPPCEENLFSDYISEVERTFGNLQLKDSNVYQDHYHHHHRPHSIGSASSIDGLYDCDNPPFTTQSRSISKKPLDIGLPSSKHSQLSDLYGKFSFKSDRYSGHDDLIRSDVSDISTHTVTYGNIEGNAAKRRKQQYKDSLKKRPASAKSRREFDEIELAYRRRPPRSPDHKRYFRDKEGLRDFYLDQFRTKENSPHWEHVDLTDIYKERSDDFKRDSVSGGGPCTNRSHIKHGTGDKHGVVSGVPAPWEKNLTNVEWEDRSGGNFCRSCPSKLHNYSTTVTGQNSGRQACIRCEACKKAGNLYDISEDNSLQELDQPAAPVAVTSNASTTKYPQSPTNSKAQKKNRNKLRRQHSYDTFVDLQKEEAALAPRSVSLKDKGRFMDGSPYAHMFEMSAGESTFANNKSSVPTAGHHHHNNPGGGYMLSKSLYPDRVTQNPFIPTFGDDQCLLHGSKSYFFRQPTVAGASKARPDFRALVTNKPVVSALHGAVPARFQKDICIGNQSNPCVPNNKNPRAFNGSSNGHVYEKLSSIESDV

| Compound | Response Recovered (%) |
| --- | --- |
| O=C(Cn1cnc2csc(-c3ccc(Cl)c(C(F)(F)F)c3)c2c1=O)N1CCCC1 [Example 366, 5-(4-chloro-3-(trifluoromethyl)phenyl)-3-(2-oxo-2-(pyrrolidin-1-yl)ethyl)thieno[3,4-d]pyrimidin-4(3H)-one] | 34 |
| CC1(N)CN(C(=O)Cn2ccc3scc(-c4ccc(Cl)c(Cl)c4)c3c2=O)C1 [Example 94, 5-(2-(3-amino-3-methylazetidin-1-yl)-2-oxoethyl)-3-(3,4-dichlorophenyl)thieno[3,2-c]pyridin-4(5H)-one] | 3.1 |
| CC1(F)CN(C(=O)Cn2cnn3cnc(-c4ccc(Cl)c(Cl)c4)c3c2=O)C1 [Example 425, 5-(3,4-dichlorophenyl)-3-(2-(3-fluoro-3-methylazetidin-1-yl)-2-oxoethyl)imidazo[5,1-f][1,2,4]triazin-4(3H)-one] | 27 |
| Cc1cc(-c2ccn3ccn(CC(=O)N4CC(C)(F)C4)c(=O)c23)cnc1Cl [Example 408, 8-(6-chloro-5-methylpyridin-3-yl)-2-(2-(3-fluoro-3-methylazetidin-1-yl)-2-oxoethyl)pyrrolo[1,2-a]pyrazin-1(2H)-one] | 51 |
| CCC1(F)CN(C(=O)Cn2ccc3scc(-c4cncc(Cl)n4)c3c2=O)C1 [Example 147, 3-(6-chloropyrazin-2-yl)-5-(2-(3-ethyl-3-fluoroazetidin-1-yl)-2-oxoethyl)thieno[3,2-c]pyridin-4(5H)-one] | −0.39 |
| O=C(Cn1cnc2csc(-c3ccc(Cl)cc3)c2c1=O)N1CCCC1C(F)(F)F (centres unmarked) [Example 355, 5-(4-chlorophenyl)-3-(2-oxo-2-(2-(trifluoromethyl)pyrrolidin-1-yl)ethyl)thieno[3,4-d]pyrimidin-4(3H)-one] | 10 |
| O=C(Cn1cnc2ccn(-c3ccc(Cl)cc3)c2c1=O)N1CCCC1C(F)(F)F (centres unmarked) [Example 379, 5-(4-chlorophenyl)-3-(2-oxo-2-(2-(trifluoromethyl)pyrrolidin-1-yl)ethyl)-3H-pyrrolo[3,2-d]pyrimidin-4(5H)-one] | 5 |
| CC1(F)CN(C(=O)Cn2ccc3scc(-c4ccc(Cl)c(F)c4)c3c2=O)C1 [Example 18, 3-(4-chloro-3-fluorophenyl)-5-(2-(3-fluoro-3-methylazetidin-1-yl)-2-oxoethyl)thieno[3,2-c]pyridin-4(5H)-one] | 120 |
| O=C(Cn1ccc2scc(-c3ccc(Cl)c(C(F)(F)F)c3)c2c1=O)N1CCC(F)C1 (centres unmarked) [Example 4, 3-(4-chloro-3-(trifluoromethyl)phenyl)-5-(2-(3-fluoropyrrolidin-1-yl)-2-oxoethyl)thieno[3,2-c]pyridin-4(5H)-one] | 107 |
| Cc1cc(-c2csc3ccn(CC(=O)N4CC(C)(F)C4)c(=O)c23)cnc1Cl [Example 84, 3-(6-chloro-5-methylpyridin-3-yl)-5-(2-(3-fluoro-3-methylazetidin-1-yl)-2-oxoethyl)thieno[3,2-c]pyridin-4(5H)-one] | 39 |
| O=C(Cn1cnc2csc(-c3ccc(Cl)c(C(F)(F)F)c3)c2c1=O)N1CC(F)(F)C1 [Example 362, 5-(4-chloro-3-(trifluoromethyl)phenyl)-3-(2-(3,3-difluoroazetidin-1-yl)-2-oxoethyl)thieno[3,4-d]pyrimidin-4(3H)-one] | 39 |
| O=C(Cn1cnc2csc(-c3ccc(Cl)cc3)c2c1=O)N1CCCC1 [Example 345, 5-(4-chlorophenyl)-3-(2-oxo-2-(pyrrolidin-1-yl)ethyl)thieno[3,4-d]pyrimidin-4(3H)-one] | 18 |

Other lines, results leading:

| Response Recovered (%) | Compound |
| --- | --- |
| 90 | O=C(Cn1ccc2c(c(-c3ccc(F)c(C(F)(F)F)c3)cn2C2CC2)c1=O)N1CCC(F)C1 (centres unmarked) [Example 231, 1-cyclopropyl-3-(4-fluoro-3-(trifluoromethyl)phenyl)-5-(2-(3-fluoropyrrolidin-1-yl)-2-oxoethyl)-1H-pyrrolo[3,2-c]pyridin-4(5H)-one] |
| 120 | O=C(Cn1ccc2[nH]cc(-c3ccc(F)c(C(F)(F)F)c3)c2c1=O)N1CC(F)C(F)C1 (centres unmarked) [Example 220, 5-(2-(3,4-difluoropyrrolidin-1-yl)-2-oxoethyl)-3-(4-fluoro-3-(trifluoromethyl)phenyl)-1H-pyrrolo[3,2-c]pyridin-4(5H)-one] |
| 19 | Cc1nc(-c2ccc(F)c(C(F)(F)F)c2)c2c(=O)n(CC(=O)N3CCC(F)C3)ccn12 (centres unmarked) [Example 427, 1-(4-fluoro-3-(trifluoromethyl)phenyl)-7-(2-(3-fluoropyrrolidin-1-yl)-2-oxoethyl)-3-methylimidazo[1,5-a]pyrazin-8(7H)-one] |
| 110 | COCn1cc(-c2ccc(F)c(C(F)(F)F)c2)c2c(=O)n(CC(=O)N3CC(F)C(F)C3)ccc21 (centres unmarked) [Example 242, 5-(2-(3,4-difluoropyrrolidin-1-yl)-2-oxoethyl)-3-(4-fluoro-3-(trifluoromethyl)phenyl)-1-(methoxymethyl)-1H-pyrrolo[3,2-c]pyridin-4(5H)-one] |
| 100 | O=C(Cn1ccc2c(c(-c3ccc(Cl)c(Cl)c3)cn2CC(F)(F)F)c1=O)N1CCC(F)C1 (centres unmarked) [Example 275, 3-(3,4-dichlorophenyl)-5-(2-(3-fluoropyrrolidin-1-yl)-2-oxoethyl)-1-(2,2,2-trifluoroethyl)-1H-pyrrolo[3,2-c]pyridin-4(5H)-one] |
| 61 | Cn1cc(-c2ccc(F)c(C(F)(F)F)c2)c2c(=O)n(CC(=O)N3CCC(F)C3)ccc21 (centres unmarked) [Example 251] |
| 130 | Cn1cnc(-n2cc(-c3ccc(F)c(Cl)c3)c3c(=O)n(CC(=O)N4CC(C)(F)C4)ccc32)n1 [Example 269, 3-(3-chloro-4-fluorophenyl)-5-(2-(3-fluoro-3-methylazetidin-1-yl)-2-oxoethyl)-1-(1-methyl-1H-1,2,4-triazol-3-yl)-1H-pyrrolo[3,2-c]pyridin-4(5H)-one] |
| 38 | Cc1cn(CC(=O)N2CCC(F)C2)c(=O)c2c(-c3ccc(F)c(C(F)(F)F)c3)cc(Br)n12 (centres unmarked) [Example 412, 6-bromo-8-(4-fluoro-3-(trifluoromethyl)phenyl)-2-(2-(3-fluoropyrrolidin-1-yl)-2-oxoethyl)-4-methylpyrrolo[1,2-a]pyrazin-1(2H)-one] |
| 76 | O=C(Cn1cc(CN2CCC2)c2scc(-c3ccc(F)c(Cl)c3)c2c1=O)N1CCC(F)C1 (centres unmarked) [Example 124, 7-(azetidin-1-ylmethyl)-3-(3-chloro-4-fluorophenyl)-5-(2-(3-fluoropyrrolidin-1-yl)-2-oxoethyl)thieno[3,2-c]pyridin-4(5H)-one] |
| 70 | CN(C)Cc1cn(CC(=O)N2CCC(F)C2)c(=O)c2c(-c3ccc(F)c(C(F)(F)F)c3)csc12 (centres unmarked) [Example 116, 7-((dimethylamino)methyl)-3-(4-fluoro-3-(trifluoromethyl)phenyl)-5-(2-(3-fluoropyrrolidin-1-yl)-2-oxoethyl)thieno[3,2-c]pyridin-4(5H)-one] |
| 54 | O=C(Cn1ccc2scc(-c3cnc(Cl)c(C(F)(F)F)c3)c2c1=O)N1CC(F)C(F)C1 (centres unmarked) [Example 36, 3-(6-chloro-5-(trifluoromethyl)pyri-din-3-yl)-5-(2-(3,4-difluoropyrrolidin-1-yl)-2-oxoethyl)thieno[3,2-c]pyridin-4(5H)-one] |
